Values of other authors in patent US11793981B2, “Microneedle device for control of thyroid hormone levels” (priority 2020, dated 2023).
Like-named read-outs stand apart in the source and are kept apart here.

Tests used:
[1] = hypothyroid patients receiving LT4
[2] = system: hypothyroidism; details: LT4-treated patients, despite supposedly adequate LT4 treatment
[3] = pregnancy

| half-life (oral LT3) | SMILES | half-life (oral LT4) | lower serum levels of T3 [1] | patients with residual symptoms of hypothyroidism and lower well-being [2] | crossing of the placenta [3] |
| --- | --- | --- | --- | --- | --- |
| hours to two days | N[C@@H](Cc1cc(I)c(Oc2ccc(O)c(I)c2)c(I)c1)C(=O)O [LT3, liothyronine] |  |  |  |  |
|  | N[C@@H](Cc1cc(I)c(Oc2cc(I)c(O)c(I)c2)c(I)c1)C(=O)O [LT4, levothyroxine] | about seven | about 10% | 10-20% | crosses the placenta |
